Test results as given in patent US9533128B2, “Devices for maintaining patency of surgically created channels in tissue” (Broncus Medical Inc., priority 2003, dated 2017).

Conditions: polymer system of polydimethylsiloxane vinyl terminated at various viscosity and platinum-mono, di, tri and/or tetramethyldisiloxane complex
Excerpt: These components may be combined in different ratios to make the polymer. […] The amount of vinyl siloxane cross-linker may determine the rate of the drug release and diffusivity of the polymer to the drug.

release profile: acceptable
Structure (SMILES): CC(=O)O[C@H]1C(=O)[C@@]2(C)[C@H]([C@H](OC(=O)c3ccccc3)[C@]3(O)C[C@H](OC(=O)[C@H](O)[C@@H](NC(=O)c4ccccc4)c4ccccc4)C(C)=C1C3(C)C)[C@]1(OC(C)=O)CO[C@@H]1C[C@@H]2O [paclitaxel]
